Where two headings read alike, the source gives them in different places.
Target: T1, CIB1 and αIIb interaction (CIB1-GST : F-αIIb peptide) (Homo sapiens, UniProt Q99828)
T1 construct: made in house; host or cells: BL-21 plus RIL cells (E. coli)
T1 sequence (Q99828 1-191): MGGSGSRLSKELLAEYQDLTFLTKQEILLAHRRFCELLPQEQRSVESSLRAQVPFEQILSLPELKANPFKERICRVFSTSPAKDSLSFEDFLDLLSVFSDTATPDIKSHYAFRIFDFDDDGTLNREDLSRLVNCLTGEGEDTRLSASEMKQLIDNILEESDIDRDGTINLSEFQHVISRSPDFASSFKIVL
Assay: FP assay, 1536-well qHTS format (primary and confirmatory screen)
Format: binding
Conditions: for Curve Class: negative sign = inhibitory curve; for IC50: read-out: IC50

[1] = qHTS primary screen hits, Table S2, negative = inhibition
[2] = qHTS primary screen hits, Table S2
[3] = qHTS primary screen of LOPAC/NPACT libraries, negative = inhibition
[4] = qHTS primary screen of LOPAC/NPACT libraries
[5] = qHTS primary screen hits, Table S2, several classes where COUNT > 1

SMILES: N#Cc1ccc(S(=O)(=O)Nc2cnccc2C(=O)Nc2nc(-c3ccccc3)cs2)cc1.O=C(O)C(F)(F)F [NCGC00344937-01]
- Efficacy (%) [1]: -38%
- Curve Class [2]: -2.4
- IC50 [2]: 79.4 µM

SMILES: CC(=O)O[C@@H](CO[C@@H]1O[C@H](CO)[C@H](O)[C@H](O)[C@H]1O)[C@]1(C)C=C2CC[C@@H]3C(C)(C)[C@@H](O)CC[C@@]3(C)[C@@H]2CC1 [NCGC00347395-02]
- Efficacy (%) [3]: -23%
- Curve Class [4]: -2.4
- IC50 [4]: 15.8 µM

SMILES: O=C(O)C(F)(F)F.O=C1CC(c2c(F)cccc2F)c2sc(N3CCOCC3)nc2N1 (centres unmarked) [NCGC00488261-02]
- Efficacy (%) [1]: -47%
- Curve Class [5]: -2.4
- IC50 [2]: 56.2 µM

SMILES: CCc1nnc(Nc2ncnc3scc(-c4cccc(S(C)(=O)=O)c4)c23)s1.O=C(O)C(F)(F)F [NCGC00188733-01]
- Efficacy (%) [1]: -31%
- Curve Class [5]: -2.2
- IC50 [2]: 50.1 µM

SMILES: O=C(O)/C=C/c1ccc(-c2ccc(O)c(C34CC5CC(CC(C5)C3)C4)c2)cc1 [NCGC00485908-01]
- Efficacy (%) [3]: -26%
- Curve Class [4]: -2.4
- IC50 [4]: 44.7 µM

SMILES: c1ccc(C2Nc3cccc4cccc(c34)N2)cc1 [NCGC00182927-03]
- Efficacy (%): -29%
- Curve Class [2]: -2.4
- IC50 [2]: 50.1 µM

SMILES: Nc1ccccc1N [NCGC00090885-03]
- Efficacy (%) [1]: -77%
- IC50 [2]: 113 µM

SMILES: CNC[C@H](O)c1ccc(O)c(O)c1 [NCGC00015417-04]
- Efficacy (%) [1]: -32%
- Curve Class [2]: -2.4
- IC50 [2]: 70.8 µM

SMILES: CCCCCCCCOc1ccccc1C(=O)Nc1ccc(C(=O)OCC[N+](C)(CC)CC)cc1.[Br-] [NCGC00163507-03]
- Efficacy (%) (qHTS FP screen hits, Table S2, negative = inhibition): -39%
- Curve Class (qHTS FP screen hits, Table S2, one class per curve where COUNT > 1): -1.2
- IC50 (qHTS FP screen hits, Table S2): 22.4 µM

SMILES: Oc1c(I)cc(Cl)c2cccnc12 [NCGC00016391-13]
- Efficacy (%) [1]: -32%
- Curve Class [5]: -2.4
- IC50 [2]: 56.2 µM

SMILES: CC1=NN(c2ccccc2)C(=O)C1 [NCGC00018218-10]
- Efficacy (%) [1]: -46%
- Curve Class [5]: -2.2
- IC50 [2]: 50.1 µM

SMILES: O=C(O)C(F)(F)F.c1ccc(-n2cc(-c3nnc4n3CCCCC4)cn2)cc1 [NCGC00249642-01]
- Efficacy (%) [1]: -39%
- Curve Class [2]: -2.4
- IC50 [2]: 89.1 µM

SMILES: O=C(Nc1ncc([N+](=O)[O-])s1)c1ccccc1O [NCGC00388427-01]
- Efficacy (%) [3]: -31%
- Curve Class [4]: -2.4
- IC50 [4]: 44.7 µM

SMILES: Oc1ccccc1C1Nc2cccc3cccc(c23)N1 [NCGC00026112-04]
- Efficacy (%) [1]: -42%
- Curve Class [2]: -2.2
- IC50 [2]: 56.2 µM

SMILES: C[C@@]1(C2CCCC2)Cc2cc(OCC(=O)O)c(Cl)c(Cl)c2C1=O [NCGC00094034-06]
- Efficacy (%) [3]: -28%
- Curve Class [4]: -2.2
- IC50 [4]: 25.1 µM

SMILES: CC(=O)O.Cc1ccc(OCCn2c(CCNC(=O)c3ccc(N)cc3)nc3ccccc32)cc1 [NCGC00241723-01]
- Efficacy (%) [1]: -31%
- Curve Class [2]: -1.4
- IC50 [2]: 44.7 µM

SMILES: CCCCn1nc(-c2ccccc2)c2nc3ccccc3nc21.O=C(O)C(F)(F)F [NCGC00351644-02]
- Efficacy (%) [1]: -127%
- Curve Class [5]: -1.1
- IC50 [2]: 25.1 µM

SMILES: C=CC(=O)Nc1cccc(Sc2nc(Nc3ccc(N4CCN(C)CC4)cc3)ncc2Cl)c1 [NCGC00346497-02]
- Efficacy (%) [3]: -29%
- Curve Class [4]: -2.4
- IC50 [4]: 20 µM

Reference: PMC11249646, “Small-Molecule Disruptors of the Interaction between Calcium- and Integrin-Binding Protein 1 and Integrin αIIbβ3 as Novel Antiplatelet Agents” (ACS Pharmacology & Translational Science, 2024)
